Data published in US10168342B2, “Lipid probes and uses thereof” (THE SCRIPPS RESEARCH INSTITUTE, priority 2015, dated 2019).
Like-named read-outs stand apart in the source and are kept apart here.

What was measured:
[1] = target: T1, AEA-DA lipid probe targets in Neuro2a cells (Mus musculus, UniProt Q9CQF9)
T1 sequence (Q9CQF9 29-505): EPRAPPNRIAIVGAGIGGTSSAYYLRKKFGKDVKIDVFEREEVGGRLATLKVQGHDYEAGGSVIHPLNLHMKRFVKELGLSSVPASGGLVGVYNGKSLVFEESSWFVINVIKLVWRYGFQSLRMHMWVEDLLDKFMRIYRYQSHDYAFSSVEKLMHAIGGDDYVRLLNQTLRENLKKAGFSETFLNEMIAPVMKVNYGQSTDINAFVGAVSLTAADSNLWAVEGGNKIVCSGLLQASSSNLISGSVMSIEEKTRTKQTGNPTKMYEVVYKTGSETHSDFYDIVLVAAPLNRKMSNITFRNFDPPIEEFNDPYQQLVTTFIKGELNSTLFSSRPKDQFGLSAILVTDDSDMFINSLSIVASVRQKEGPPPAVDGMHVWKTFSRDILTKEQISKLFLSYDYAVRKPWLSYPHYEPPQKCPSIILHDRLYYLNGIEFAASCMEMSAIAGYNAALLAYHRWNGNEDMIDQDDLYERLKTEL

[2] = target: T2, AEA-DA lipid probe targets in Neuro2a cells (Mus musculus, UniProt Q8BJ71)
T2 sequence (Q8BJ71 1-819): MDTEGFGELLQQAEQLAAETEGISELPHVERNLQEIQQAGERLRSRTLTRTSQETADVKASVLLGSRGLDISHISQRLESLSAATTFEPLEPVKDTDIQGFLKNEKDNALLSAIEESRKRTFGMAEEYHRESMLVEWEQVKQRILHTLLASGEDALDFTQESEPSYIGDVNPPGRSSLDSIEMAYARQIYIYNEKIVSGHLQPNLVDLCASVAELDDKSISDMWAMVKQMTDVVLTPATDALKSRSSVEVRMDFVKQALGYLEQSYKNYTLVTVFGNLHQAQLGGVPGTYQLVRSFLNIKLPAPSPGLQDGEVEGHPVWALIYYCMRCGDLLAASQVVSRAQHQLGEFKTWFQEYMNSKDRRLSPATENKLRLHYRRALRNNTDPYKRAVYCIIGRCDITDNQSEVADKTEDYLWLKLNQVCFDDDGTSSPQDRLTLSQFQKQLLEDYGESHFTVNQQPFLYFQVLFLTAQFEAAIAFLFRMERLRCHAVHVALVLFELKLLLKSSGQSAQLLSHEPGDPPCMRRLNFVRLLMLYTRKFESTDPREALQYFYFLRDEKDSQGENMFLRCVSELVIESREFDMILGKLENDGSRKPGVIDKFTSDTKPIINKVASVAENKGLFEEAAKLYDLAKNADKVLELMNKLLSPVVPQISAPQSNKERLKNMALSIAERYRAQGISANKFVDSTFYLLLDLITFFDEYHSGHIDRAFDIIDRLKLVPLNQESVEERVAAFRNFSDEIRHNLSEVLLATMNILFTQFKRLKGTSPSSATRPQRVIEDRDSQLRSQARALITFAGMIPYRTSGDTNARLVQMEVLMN

[3] = target: T3, AEA-DA lipid probe targets in Neuro2a cells (Mus musculus, UniProt Q8C3X8)
T3 sequence (Q8C3X8 1-702): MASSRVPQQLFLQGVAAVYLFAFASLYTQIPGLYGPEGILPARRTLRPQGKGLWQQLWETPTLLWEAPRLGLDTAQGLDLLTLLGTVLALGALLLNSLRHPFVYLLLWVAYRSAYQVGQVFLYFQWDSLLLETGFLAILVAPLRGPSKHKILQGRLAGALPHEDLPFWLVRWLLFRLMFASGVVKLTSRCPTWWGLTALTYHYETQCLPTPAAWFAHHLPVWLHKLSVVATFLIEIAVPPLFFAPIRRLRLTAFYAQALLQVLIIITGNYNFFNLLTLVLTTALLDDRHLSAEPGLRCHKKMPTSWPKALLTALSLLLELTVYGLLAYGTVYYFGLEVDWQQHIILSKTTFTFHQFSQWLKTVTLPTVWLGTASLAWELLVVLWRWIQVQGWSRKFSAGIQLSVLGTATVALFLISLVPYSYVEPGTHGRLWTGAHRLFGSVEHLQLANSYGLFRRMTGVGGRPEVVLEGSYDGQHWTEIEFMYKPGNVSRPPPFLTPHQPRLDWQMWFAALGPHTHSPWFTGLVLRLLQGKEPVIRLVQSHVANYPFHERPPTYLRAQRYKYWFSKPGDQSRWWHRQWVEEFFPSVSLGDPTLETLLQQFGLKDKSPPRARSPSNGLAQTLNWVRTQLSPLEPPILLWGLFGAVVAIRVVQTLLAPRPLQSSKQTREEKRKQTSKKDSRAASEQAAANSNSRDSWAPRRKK

[4] = target: AEA-DA lipid probe targets in Neuro2a cells (Mus musculus, UniProt P62814)
AEA-DA lipid probe targets in Neuro2a cells (Mus musculus, UniProt P62814), sequence (P62814 whole entry): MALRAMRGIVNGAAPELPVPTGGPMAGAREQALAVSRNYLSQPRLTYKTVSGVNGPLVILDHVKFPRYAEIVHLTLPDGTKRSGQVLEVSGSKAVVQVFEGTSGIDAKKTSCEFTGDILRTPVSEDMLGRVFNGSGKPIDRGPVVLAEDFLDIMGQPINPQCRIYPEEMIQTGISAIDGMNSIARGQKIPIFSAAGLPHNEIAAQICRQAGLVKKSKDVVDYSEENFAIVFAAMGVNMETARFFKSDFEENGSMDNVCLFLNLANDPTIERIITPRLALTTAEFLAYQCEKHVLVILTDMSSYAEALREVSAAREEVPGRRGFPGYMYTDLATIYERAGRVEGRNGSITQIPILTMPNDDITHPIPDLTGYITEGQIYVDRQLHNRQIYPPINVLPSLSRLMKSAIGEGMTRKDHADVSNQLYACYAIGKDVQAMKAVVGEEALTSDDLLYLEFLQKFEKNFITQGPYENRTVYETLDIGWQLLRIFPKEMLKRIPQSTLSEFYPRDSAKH

[5] = target: T4, AEA-DA lipid probe targets in Neuro2a cells (Mus musculus, UniProt Q8R2Y0); settings: for SILAC ratio, ABHD6 (Q8R2Y0): Neuro2a cells, AEA-DA probe
T4 sequence (Q8R2Y0 1-336): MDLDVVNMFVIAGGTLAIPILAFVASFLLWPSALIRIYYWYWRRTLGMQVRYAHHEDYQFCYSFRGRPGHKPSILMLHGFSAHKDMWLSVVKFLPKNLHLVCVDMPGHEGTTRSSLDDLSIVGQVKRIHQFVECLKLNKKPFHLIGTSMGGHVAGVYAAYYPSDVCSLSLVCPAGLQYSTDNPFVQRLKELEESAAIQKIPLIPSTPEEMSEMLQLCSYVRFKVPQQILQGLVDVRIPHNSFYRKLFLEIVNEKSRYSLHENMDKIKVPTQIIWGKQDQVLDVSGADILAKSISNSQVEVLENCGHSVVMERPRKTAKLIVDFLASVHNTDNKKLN

[6] = target: T5, AEA-DA lipid probe targets in Neuro2a cells (Mus musculus, UniProt Q9QZD8)
T5 sequence (Q9QZD8 1-287): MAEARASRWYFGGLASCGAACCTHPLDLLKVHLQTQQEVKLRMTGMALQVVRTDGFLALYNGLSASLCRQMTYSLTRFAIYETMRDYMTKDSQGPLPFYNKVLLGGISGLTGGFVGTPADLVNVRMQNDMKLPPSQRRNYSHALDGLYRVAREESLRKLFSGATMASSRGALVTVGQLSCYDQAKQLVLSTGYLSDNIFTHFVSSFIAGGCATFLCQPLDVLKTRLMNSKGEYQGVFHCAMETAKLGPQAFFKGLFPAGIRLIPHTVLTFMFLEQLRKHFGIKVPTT

Compound | SILAC ratio, Pcyox1 ([1]; competitor 25 μM) | SILAC ratio Nup93 ([2]; competitor 25 μM) | SILAC ratio Lmf2 ([3]; competitor 25 μM) | SILAC ratio Atp6v1b2 ([4]; competitor 25 μM) | SILAC ratio, ABHD6 (Q8R2Y0) ([5]; competitor 25 μM) | SILAC ratio, Abhd6 ([5]; competitor 25 μM) | SILAC ratio Slc25a10 ([6]; competitor 25 μM) | further results
CCCCC/C=C\C/C=C\C/C=C\C/C=C\CCCC(=O)NCCO [AEA, anandamide, reference compound] | – | – | – | – | – | – | – | SILAC ratio, Pcyox1 ([1]; competitor 200 μM): 1.7; SILAC ratio Nup93 ([2]; competitor 200 μM): 1.2; SILAC ratio Lmf2 ([3]; competitor 200 μM): 1.9; SILAC ratio Atp6v1b2 ([4]; competitor 200 μM): 1.1; SILAC ratio, ABHD6 (Q8R2Y0) ([5]; competitor 200 μM): 2.3; SILAC ratio, Abhd6 ([5]; competitor 200 μM): 2.3; SILAC ratio Slc25a10 ([6]; competitor 200 μM): 1.2
O=C(/C=C/c1cccnc1)NCCCCC1CCN(C(=O)c2ccccc2)CC1 [FK-866, reference compound] | 1.2 | 1.2 | 1.2 | 1.6 | 1.7 | 1.7 | 1.2 | –
CN1CCN(C(=O)c2c(-c3ccccc3)c3cc([N+](=O)[O-])ccc3n2C)CC1 [KML110, (1-Methyl-5-nitro-3-phenyl-1H-indol-2-yl)(4-methylpiperazin-1-yl)methanone] | 1.5 | 1.4 | 1.7 | 1.2 | – | 2.6 | 1.2 | –
CN1CCN(C(=O)c2[nH]c3ccc([N+](=O)[O-])cc3c2-c2ccccc2)CC1 [MJN228, (4-Methylpiperazin-1-yl)(5-nitro-3-phenyl-1H-indol-2-yl)methanone] | 1.4 | 1.1 | 1.7 | 1.1 | 1.7 | 1.7 | 1.2 | SILAC ratio, Pcyox1 ([1]; competitor 10 μM): 1.2; SILAC ratio, Pcyox1 ([1]; competitor 50 μM): 1.6; SILAC ratio, Pcyox1 ([1]; competitor 100 μM): 2.2; SILAC ratio Nup93 ([2]; competitor 10 μM): 0.9; SILAC ratio Nup93 ([2]; competitor 50 μM): 1.0; SILAC ratio Nup93 ([2]; competitor 100 μM): 1.1; SILAC ratio Lmf2 ([3]; competitor 10 μM): 1.5; SILAC ratio Lmf2 ([3]; competitor 50 μM): 2.0; SILAC ratio Lmf2 ([3]; competitor 100 μM): 2.5; SILAC ratio Atp6v1b2 ([4]; competitor 10 μM): 1.2; SILAC ratio Atp6v1b2 ([4]; competitor 50 μM): 0.9; SILAC ratio, Abhd6 ([5]; competitor 10 μM): 1.2; SILAC ratio, Abhd6 ([5]; competitor 50 μM): 2.3; SILAC ratio, Abhd6 ([5]; competitor 100 μM): 2.9; SILAC ratio Slc25a10 ([6]; competitor 10 μM): 1.2; SILAC ratio Slc25a10 ([6]; competitor 50 μM): 1.3; SILAC ratio Slc25a10 ([6]; competitor 100 μM): 1.0
C=CCN(C)CCCCCCOc1ccc(C(=O)c2ccc(Br)cc2)c(F)c1 [Ro 48-8071, reference compound] | 1.8 | 0.9 | 1.3 | 0.6 | 1.2 | 1.2 | 0.9 | –
